Three compounds from ChEMBL document CHEMBL1144891, “Design, synthesis, and pharmacology of a highly subtype-selective GluR1/2 agonist, (RS)-2-amino-3-(4-chloro-3-hydroxy-5-isoxazolyl)propionic acid (Cl-HIBO)” (J Med Chem, 2003) can be followed below.

Series [1] addresses Glutamate receptor 3 (Rattus norvegicus, UniProt P19492). Nature of the series: Effective concentration of compound was determined for electrophysiological properties on Ionotropic glutamate receptor AMPA 3 (GluR3) using […] Xenopus laevis oocytes. The series is classed as functional, cell-based, Oocyte.
Series [2] has as its target Glutamate receptor ionotropic, NMDA 2C (Rattus norvegicus, UniProt Q00961). The series is described as follows: Binding affinity of compound was determined against N-methyl-D-aspartate glutamate receptor, using radioligand [3H]- CGP-39653.
The target in series [3] is T1, Glutamate receptor ionotropic, kainate 3 (Rattus norvegicus, UniProt P42264). Nature of the series: Binding affinity of compound was determined against KA receptor, using radioligand [3H]- KA.
The species entered for a further series is Rattus norvegicus. Nature of the series: Effective concentration of compound was determined for electrophysiological properties on iGluRs using rat cortical slice model in Xenopus laevis oocytes.
Series [4] has as its target T2, Metabotropic glutamate receptor 1 (Homo sapiens, UniProt Q13255). Nature of the series: Antagonist activity of compound at Metabotropic glutamate receptor 1 alpha was determined. The series is classed as functional.
In series [5] the target is Glutamate receptor ionotropic, kainate 2 (Homo sapiens, UniProt Q13002). Nature of the series: Binding affinity of compound was determined towards cloned Ionotropic glutamate receptor ionotropic kainate 6 (GluR6) expressed in Sf 9 insect cells.
The target of series [6] is Glutamate receptor ionotropic, kainate 1 (Homo sapiens, UniProt P39086). Nature of the series: Binding affinity of compound was determined towards cloned Ionotropic glutamate receptor ionotropic kainate 1 (GluR5) expressed in Sf 9 insect cells.
A short description of series [7]: Neurotoxicity was determined in cultured mouse cortical neurons. The class given is toxicity.
The target in series [8] is Glutamate receptor 4 (Rattus norvegicus, UniProt P19493). The series is described as follows: Effective concentration of compound was determined for electrophysiological properties on Ionotropic glutamate receptor AMPA 4 (GluR4) using […] Xenopus laevis oocytes. The series is classed as functional, cell-based, Oocyte.
For series [9], the target named is Glutamate receptor 1 (Rattus norvegicus, UniProt P19490). Nature of the series: Binding affinity of compound was determined against Ionotropic glutamate receptor AMPA receptor, using radioligand [3H]- AMPA.
The target in series [10] is Glutamate receptor 3 (Homo sapiens, UniProt P42263). The series is described as follows: Binding affinity of compound was determined towards cloned Ionotropic glutamate receptor AMPA 3 (GluR3) expressed in Sf 9 insect cells.
For series [11], the target named is Glutamate receptor 2 (Homo sapiens, UniProt P42262). Nature of the series: biochemical.
Series [12] has as its target Glutamate receptor 2 (Rattus norvegicus, UniProt P19491). The series is described as follows: Effective concentration of compound was determined for electrophysiological properties on Ionotropic glutamate receptor AMPA 2 (GluR2) using […] Xenopus laevis oocytes. The class given is functional, cell-based, Oocyte.
The target of series [13] is Glutamate receptor 4 (Homo sapiens, UniProt P48058). The series is described as follows: Binding affinity of compound was determined towards cloned Ionotropic glutamate receptor AMPA 4 (GluR4) expressed in Sf 9 insect cells.
Series [14] addresses Glutamate receptor 1 (Homo sapiens, UniProt P42261). Nature of the series: Binding affinity of compound was determined towards cloned Ionotropic glutamate receptor AMPA 1 (GluR1) expressed in Sf 9 insect cells.
Series [15] has as its target Glutamate receptor 1 (Mus musculus, UniProt P23818). The series is described as follows: Effective concentration of compound was determined for electrophysiological properties on […] glutamate receptor 1 using […] Xenopus laevis oocytes. The class given is functional, cell-based, Oocyte.
Series [16] deals with T1, Glutamate receptor ionotropic, kainate 3. Nature of the series: Binding affinity of compound was determined against Ionotropic glutamate receptor ionotropic kainate, using radioligand [3H]- KA.
Series [17] addresses T2, Metabotropic glutamate receptor 1. The series is described as follows: Antagonist activity of compound at Metabotropic glutamate receptor 1 was determined. The series is classed as functional.

Glutamate receptor ionotropic, NMDA 2C, sequence (Q00961 whole entry): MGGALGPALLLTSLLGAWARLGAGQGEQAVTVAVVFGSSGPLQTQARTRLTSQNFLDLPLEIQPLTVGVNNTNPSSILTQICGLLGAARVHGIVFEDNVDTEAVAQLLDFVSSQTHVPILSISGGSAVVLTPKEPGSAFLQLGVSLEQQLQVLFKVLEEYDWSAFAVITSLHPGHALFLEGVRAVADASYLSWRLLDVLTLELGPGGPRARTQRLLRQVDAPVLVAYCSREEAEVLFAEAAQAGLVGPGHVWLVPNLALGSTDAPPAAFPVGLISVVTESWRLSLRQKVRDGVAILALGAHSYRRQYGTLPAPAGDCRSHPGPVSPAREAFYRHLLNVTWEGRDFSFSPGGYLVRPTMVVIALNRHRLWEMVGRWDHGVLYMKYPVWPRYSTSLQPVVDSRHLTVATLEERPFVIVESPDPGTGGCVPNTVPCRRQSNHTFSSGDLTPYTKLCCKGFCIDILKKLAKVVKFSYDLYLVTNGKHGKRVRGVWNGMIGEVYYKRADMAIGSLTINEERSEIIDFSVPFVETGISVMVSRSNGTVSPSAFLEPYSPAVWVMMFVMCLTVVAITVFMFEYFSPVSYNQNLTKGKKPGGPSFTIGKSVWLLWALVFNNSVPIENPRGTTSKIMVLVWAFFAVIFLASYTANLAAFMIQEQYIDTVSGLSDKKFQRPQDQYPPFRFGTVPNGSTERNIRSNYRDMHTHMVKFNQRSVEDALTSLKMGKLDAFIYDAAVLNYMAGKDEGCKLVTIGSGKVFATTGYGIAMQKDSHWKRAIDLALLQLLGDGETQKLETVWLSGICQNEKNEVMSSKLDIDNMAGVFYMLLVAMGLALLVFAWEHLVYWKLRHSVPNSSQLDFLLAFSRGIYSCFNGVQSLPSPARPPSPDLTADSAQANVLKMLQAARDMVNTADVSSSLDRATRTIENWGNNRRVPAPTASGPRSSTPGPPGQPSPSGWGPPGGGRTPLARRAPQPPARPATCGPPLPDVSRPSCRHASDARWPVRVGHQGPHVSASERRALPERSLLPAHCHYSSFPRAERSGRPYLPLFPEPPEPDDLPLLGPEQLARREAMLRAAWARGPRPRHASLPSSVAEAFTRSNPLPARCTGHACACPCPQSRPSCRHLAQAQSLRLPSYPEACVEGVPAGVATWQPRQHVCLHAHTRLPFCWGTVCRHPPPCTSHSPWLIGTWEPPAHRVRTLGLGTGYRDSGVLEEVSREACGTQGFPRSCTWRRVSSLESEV
Glutamate receptor 2 (Homo sapiens, UniProt P42262), sequence (P42262 whole entry): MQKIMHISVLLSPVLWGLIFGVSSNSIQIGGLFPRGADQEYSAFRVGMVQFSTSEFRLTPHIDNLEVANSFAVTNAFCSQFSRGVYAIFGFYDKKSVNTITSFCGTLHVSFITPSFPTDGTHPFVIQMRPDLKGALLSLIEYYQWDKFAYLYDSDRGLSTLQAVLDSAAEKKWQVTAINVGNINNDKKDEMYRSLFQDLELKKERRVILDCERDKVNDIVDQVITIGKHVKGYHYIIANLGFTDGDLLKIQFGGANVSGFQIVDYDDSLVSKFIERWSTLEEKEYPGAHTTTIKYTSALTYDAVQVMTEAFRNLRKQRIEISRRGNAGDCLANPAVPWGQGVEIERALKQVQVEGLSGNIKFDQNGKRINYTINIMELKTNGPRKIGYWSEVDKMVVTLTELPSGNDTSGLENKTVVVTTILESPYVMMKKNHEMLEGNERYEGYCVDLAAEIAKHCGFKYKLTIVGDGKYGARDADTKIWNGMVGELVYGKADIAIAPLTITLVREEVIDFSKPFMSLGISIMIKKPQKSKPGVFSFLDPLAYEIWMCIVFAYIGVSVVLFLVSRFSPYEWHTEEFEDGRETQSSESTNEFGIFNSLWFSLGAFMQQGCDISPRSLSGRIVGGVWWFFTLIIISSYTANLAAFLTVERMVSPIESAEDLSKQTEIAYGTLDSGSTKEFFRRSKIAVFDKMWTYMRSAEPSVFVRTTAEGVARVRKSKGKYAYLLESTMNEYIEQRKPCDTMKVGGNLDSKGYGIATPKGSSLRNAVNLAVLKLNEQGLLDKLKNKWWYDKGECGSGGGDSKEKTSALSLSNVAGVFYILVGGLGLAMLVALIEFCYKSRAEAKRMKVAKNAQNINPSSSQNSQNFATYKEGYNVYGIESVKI
T2 sequence (Q13255 whole entry): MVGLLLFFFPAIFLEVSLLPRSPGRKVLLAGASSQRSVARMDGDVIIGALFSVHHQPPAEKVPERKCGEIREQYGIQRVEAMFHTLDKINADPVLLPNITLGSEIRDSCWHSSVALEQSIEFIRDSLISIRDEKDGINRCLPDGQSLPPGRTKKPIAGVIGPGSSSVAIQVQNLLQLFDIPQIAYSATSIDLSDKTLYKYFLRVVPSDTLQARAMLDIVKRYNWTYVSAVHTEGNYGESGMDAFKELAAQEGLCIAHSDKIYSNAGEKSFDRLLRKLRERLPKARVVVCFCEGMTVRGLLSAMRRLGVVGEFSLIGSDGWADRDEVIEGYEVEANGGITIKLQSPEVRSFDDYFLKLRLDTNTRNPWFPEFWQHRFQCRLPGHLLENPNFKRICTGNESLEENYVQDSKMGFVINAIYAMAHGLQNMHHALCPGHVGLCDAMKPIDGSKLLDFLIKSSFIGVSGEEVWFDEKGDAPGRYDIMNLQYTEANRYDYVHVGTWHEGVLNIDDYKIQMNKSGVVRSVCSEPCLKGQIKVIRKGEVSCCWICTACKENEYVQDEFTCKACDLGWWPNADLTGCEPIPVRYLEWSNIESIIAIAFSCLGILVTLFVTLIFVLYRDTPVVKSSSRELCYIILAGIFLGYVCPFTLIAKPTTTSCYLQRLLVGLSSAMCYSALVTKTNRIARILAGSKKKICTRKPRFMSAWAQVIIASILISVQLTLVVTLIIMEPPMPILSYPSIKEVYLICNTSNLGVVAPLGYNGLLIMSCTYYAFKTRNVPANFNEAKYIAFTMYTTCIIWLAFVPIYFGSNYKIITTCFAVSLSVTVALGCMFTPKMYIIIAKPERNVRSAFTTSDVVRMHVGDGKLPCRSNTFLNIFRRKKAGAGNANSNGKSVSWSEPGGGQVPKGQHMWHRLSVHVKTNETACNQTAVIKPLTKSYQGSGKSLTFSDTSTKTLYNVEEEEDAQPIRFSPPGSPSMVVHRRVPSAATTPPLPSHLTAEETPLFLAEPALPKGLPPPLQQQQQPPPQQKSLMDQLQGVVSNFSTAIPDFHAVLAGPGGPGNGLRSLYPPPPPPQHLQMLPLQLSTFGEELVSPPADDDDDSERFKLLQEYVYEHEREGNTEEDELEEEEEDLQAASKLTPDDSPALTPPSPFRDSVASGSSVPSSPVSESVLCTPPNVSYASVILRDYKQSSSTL
T1 sequence (P42264 whole entry): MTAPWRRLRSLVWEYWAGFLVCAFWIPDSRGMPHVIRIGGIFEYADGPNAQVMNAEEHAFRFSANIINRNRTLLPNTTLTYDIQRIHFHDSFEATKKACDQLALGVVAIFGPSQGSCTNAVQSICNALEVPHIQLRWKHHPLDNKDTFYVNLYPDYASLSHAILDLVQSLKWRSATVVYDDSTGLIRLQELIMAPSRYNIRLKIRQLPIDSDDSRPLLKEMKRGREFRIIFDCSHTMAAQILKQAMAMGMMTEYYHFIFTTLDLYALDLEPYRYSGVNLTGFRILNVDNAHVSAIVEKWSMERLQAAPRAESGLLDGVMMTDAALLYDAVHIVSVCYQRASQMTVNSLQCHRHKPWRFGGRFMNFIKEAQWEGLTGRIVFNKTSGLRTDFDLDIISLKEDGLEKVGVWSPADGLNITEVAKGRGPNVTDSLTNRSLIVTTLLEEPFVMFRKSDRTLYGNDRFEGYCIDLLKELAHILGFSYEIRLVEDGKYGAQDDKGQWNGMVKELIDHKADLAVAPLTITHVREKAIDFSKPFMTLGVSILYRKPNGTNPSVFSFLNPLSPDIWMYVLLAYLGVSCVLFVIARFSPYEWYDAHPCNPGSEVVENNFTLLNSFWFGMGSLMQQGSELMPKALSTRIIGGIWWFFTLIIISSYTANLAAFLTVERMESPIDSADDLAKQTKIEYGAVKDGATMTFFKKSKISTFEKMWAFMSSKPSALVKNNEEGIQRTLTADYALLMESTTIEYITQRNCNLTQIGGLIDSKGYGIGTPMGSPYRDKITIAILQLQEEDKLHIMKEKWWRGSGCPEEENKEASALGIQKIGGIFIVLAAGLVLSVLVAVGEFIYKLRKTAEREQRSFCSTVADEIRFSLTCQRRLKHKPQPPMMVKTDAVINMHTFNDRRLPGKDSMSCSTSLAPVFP
Glutamate receptor 3 (Homo sapiens, UniProt P42263), sequence (P42263 whole entry): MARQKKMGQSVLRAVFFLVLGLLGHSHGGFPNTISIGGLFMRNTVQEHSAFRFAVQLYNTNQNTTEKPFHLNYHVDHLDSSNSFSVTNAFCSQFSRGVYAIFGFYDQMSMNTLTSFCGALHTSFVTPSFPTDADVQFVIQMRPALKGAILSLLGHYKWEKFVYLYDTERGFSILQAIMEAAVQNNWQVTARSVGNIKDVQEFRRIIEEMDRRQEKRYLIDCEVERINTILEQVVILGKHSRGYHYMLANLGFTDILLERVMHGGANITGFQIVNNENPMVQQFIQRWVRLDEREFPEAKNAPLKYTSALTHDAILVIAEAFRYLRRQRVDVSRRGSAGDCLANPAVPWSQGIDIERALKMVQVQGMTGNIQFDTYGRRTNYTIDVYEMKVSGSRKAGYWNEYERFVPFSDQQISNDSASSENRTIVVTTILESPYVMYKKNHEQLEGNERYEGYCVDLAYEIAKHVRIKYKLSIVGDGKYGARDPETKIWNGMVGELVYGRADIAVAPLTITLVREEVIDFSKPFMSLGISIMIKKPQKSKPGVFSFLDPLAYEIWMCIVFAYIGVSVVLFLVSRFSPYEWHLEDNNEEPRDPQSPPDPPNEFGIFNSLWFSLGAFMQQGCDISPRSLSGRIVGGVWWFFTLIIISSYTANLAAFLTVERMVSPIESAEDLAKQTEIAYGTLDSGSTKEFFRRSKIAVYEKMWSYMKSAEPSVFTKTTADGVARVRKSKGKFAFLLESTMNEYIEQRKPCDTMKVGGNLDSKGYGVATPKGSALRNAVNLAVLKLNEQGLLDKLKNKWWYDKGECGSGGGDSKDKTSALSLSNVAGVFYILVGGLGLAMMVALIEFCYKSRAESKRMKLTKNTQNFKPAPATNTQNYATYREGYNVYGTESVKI

Take `NC(Cc1onc(O)c1Cl)C(=O)O` (configuration not stated): the EC50 at Glutamate receptor 3 [1] stood at 2700 µM; in the series filed under Rattus norvegicus, 39 µM; in series [7], 27 µM; on Glutamate receptor 4 [8], 1300 µM; on Glutamate receptor 2 [12] it was 1.7 µM. The inhibition constant (Ki) in series [2] was 18 µM; in [4], 860 µM; in series [5] it was greater than 100 µM; in series [6], 6.8 µM; at Glutamate receptor 3 [10], 27.5 µM; at Glutamate receptor 2 [11], 0.37 µM. The Ki amounted to 11.9 µM at Glutamate receptor 4 [13] and 0.13 µM on Glutamate receptor 1 [14]. Moreover, the values for the IC50 (in series [3]; on Glutamate receptor 1 [9]) were greater than 100 µM and 0.22 µM, respectively.

`NC(Cc1onc(O)c1Br)C(=O)O` (configuration not stated): the inhibitory constant (Ki) in series [2] was 34 µM; in series [5] it was greater than 100 µM; in series [6], 4.8 µM; in [17], 329 µM; on Glutamate receptor 3 [10], 12 µM; at Glutamate receptor 2 [11], 0.25 µM. For the same compound, the inhibition constant Ki at Glutamate receptor 4 [13] is 11.7 µM; on Glutamate receptor 1 [14], 0.17 µM. Moreover, the figures for the EC50 (on Glutamate receptor 1 [15]; in series [7]) were 14 µM and 16 µM, respectively. Further, the IC50 in [16] is greater than 100 µM.

On to `Cc1onc(O)c1CC(N)C(=O)O` [(R,S)-AMPA], for which a half-maximal response in series [7] (EC50) required 13 µM.
